From patent US20080045584A1, “Use of Docetaxel for Treating Hepatocellular Carcinoma” (priority 1999, published 2008)
Like-named read-outs stand apart in the source and are kept apart here.

What was measured:
[1] = system: Hep 3B cells; assay: Flow cytometric analysis of DNA content (cell cycle, sub-G0/G1); assay type: cell-based, human
Experimental: Lysing buffer (0.5% Triton X-100, 0.2 μg/ml Na2EDTA.2H2O, and 1% bovine serum albumin in PBS) was added to the cell pellets which were then left on ice for 15 minutes. 100% methanol pre-cooled to −20° C. was then added to the mixture, which was then centrifuged at 300×g for 5 minutes. The supernatant was discarded and the cell pellet was washed with PBS. The washed pellet was stained with a DNA staining solution (50 μg/ml propidium iodide, and 5 kunitz/ml of RNase A) for 30 minutes at 4° C. in the dark. The DNA content of each cell was measured using a Becton Dickinson FACS Calibur flow cytometer as set out below.
(§1) Cells (10000) were analyzed on a Becton Dickinson FACS Calibur flow cytometer using an argon-ion laser (15 mWatt) with incident beam at 488 nm. For PI exclusion assay, red fluorescence was collected through a 585 nm filter and the cell debris signals were removed by FSC-SSC gating. Data were acquired and analyzed using FACS/CELL Quest software on a Power Macintosh 7600/120 computer. Apoptotic cells and cells at specific cycle phases were determined by ModFit LT software.
Table 1 gives figures for cell membrane permeability of the hepatoma cells, following treatment with paclitaxel and docetaxel. Table 2 details the percentage of apoptotic (sub-G0/G1) cells found after paclitaxel and docetaxel treatment.

[2] = system: Hepa 1-6 cells; conditions: Hepa 1-6, 1 μM
Experimental: (§2) The experiments detailed below involve human hepatoma cell lines Hep3B (ATCC designation HB 8064), HepG2 (ATCC designation HB 8065) and HA22T/VGH, and murine hepatoma cell line Hepa 1-6. These cells were cultured in DMEM (GIBCO, BRL) containing 10% fetal bovine serum (Hyclone), 0.01 mg/ml gentamycin and 0.1 mM non-essential amino acid. Cells were grown in a CO2 incubator at 37° C., with 5% CO2 and 95% filtered air.
(§3) In the experiments detailed below the above hepatoma cells were treated with different concentrations of paclitaxel (0.001-10 μM) and docetaxel (0.001-10 μM) for 24 hours and 72 hours. Paclitaxel was dissolved in dimethylsulfoxide (DMSO) and docetaxel was dissolved in ethanol as stock solutions. The final concentration of vehicle was less than 0.1%.
(§4) Cells were cultured in a 96 well cell culture cluster (COSTAR) at a density of 4×10^4 cells/ml. After drug treatment for 24 hours or 72 hours, medium was discarded and replaced with an equal volume (100 μl) of fresh medium containing MTT (0.456 mg/ml; 3-[4,5-Dimethylthiazol-2-yl]2,5-diphenyl-tetrazolium bromide) and incubated for 1.5 hours at 37° C. The fresh medium was then discarded, and 100 μl DMSO was then added. Cell viability was determined by colorimetric comparison by reading OD values from a microplate reader (SPECTRA MAX250) at an absorption wavelength of 570 nm.
(§5) Data are the mean i standard error of mean from duplicate samples of three independent experiments.

[3] = system: Hep 3B cells; conditions: 0.01 μM, 72 hours
Experimental: as §2, §3, §4, §5

[4] = system: hepatoma cell lines (Hep G2, Hep 3B, HA22T/VGH and Hepa 1-6); assay: Cell viability study: MTT assay, all lines (FIG. 1); assay type: cell-based
[5] = system: Hep 3B cells; assay: Propidium iodide (PI) exclusion assay, flow cytometry; assay type: cell-based, human
Experimental: (§6) Cells were grown on 5-cm^2 flasks (CORNING) and treated with paclitaxel and docetaxel as set out above. Propidium iodide (10 μg/ml) was then added for 15 minutes incubation at 37° C. Then, medium was collected prior to harvest of the adherent cells. Both suspended and attached cells were collected and resuspended with 500 μl PBS for flow cytometry analysis as set out below. Debris signals were removed by FSC-SSC gating.
as §1
(§7) Data are mean±standard error of mean from duplicated sample of at least three independent experiments. Cells were treated with drugs for 24-72 hours, and membrane permeability was measured by flowcytometric analysis of propidium exclusion in viable hepatoma cells. Data are the percentage of cells with intact cell membrane as compared to control

[6] = system: HA22T/VGH cells; assay: as above; assay type: cell-based, human
Experimental: as §6, §1, §7

[7] = system: Hep G2 cells; assay: as above; assay type: cell-based, human
Experimental: as §6, §1, §7

[8] = system: Hep G2 cells; assay: Cell viability study: MTT assay; assay type: cell-based, human; conditions: for viability: Hep G2, 1 μM
[9] = system: Hep G2 cells; assay: DNA fragmentation electrophoresis analysis; assay type: cell-based, human; conditions: Hep G2, 0.1 and 1 μM, 72 hours
Experimental: DNA fragmentation assessment was according to the method Herrmann et al, Nucleic Acids Res., 22, 5506-5507, 1994.
Briefly, HEP G2 cells (2×10^7) were treated for 72 hours with paclitaxel and docetaxel as set out above and centrifuged. The thus obtained cell pellets were resuspended with NP-40 lysis buffer (1% NP-40 in 20 mM EDTA, 50 mM Tris-HCl, pH 7.5). After lysis of cells for a few seconds, the supernatants were collected (5 minutes at 1600×g). The extraction was repeated with the same lysis buffer. SDS (final concentration 1%) and RNase were added (final concentration 2.5 μg/μl) to supernatants and incubated for 2 hours at 56° C. followed by digestion with proteinase K (2.5 μg/μl) for 2 hours at 37° C. Then, the mixtures were added to 10 M ammonium acetate prior to 100% ethanol precipitation for 30 minutes at −20° C. The DNA was collected by centrifugation (10 min at 12000 ×g) followed by electrophoresis on 1.5% agarose gel.
In FIG. 3, M is a 100 base pair marker. […] Lanes 2 and 3 show mean paclitaxel (0.1 and 1 μM) treatment groups. Lanes 4 and 5 show mean docetaxel (0.1 and 1 μM) treatment groups.

CC(=O)O[C@@]12CO[C@@H]1C[C@H](O)[C@@]1(C)C(=O)[C@H](O)C3=C(C)[C@@H](OC(=O)[C@H](O)[C@@H](NC(=O)OC(C)(C)C)c4ccccc4)C[C@@](O)([C@@H](OC(=O)c4ccccc4)[C@H]21)C3(C)C [Docetaxel]
% of apoptotic (sub-G0/G1) cells ([1]; 24 hrs, 0.01 mM (text: μM)): 59.14% | % of apoptotic (sub-G0/G1) cells ([1]; 24 hrs, 0.1 mM (table head; text: μM)): 58.67% | % of apoptotic (sub-G0/G1) cells ([1]; 24 hrs, 0.1 mM (table head; text: μM), listed as docetaxel): 58.69% | % of apoptotic (sub-G0/G1) cells ([1]; 24 hrs, 1 mM (text: μM)): 65.74% | % of apoptotic (sub-G0/G1) cells ([1]; 72 hrs, 0.01 mM (text: μM)): 64.12% | % of apoptotic (sub-G0/G1) cells ([1]; 72 hrs, 0.1 mM (text: μM)): 81.66% | % of apoptotic (sub-G0/G1) cells ([1]; 72 hrs, 1 mM (text: μM)): 79.33% | maximum cytotoxicity ([2]; 24 hours): 65.34% | maximum cytotoxicity ([2]; 72 hours): 30.71% | reduction of viability [3]: 37.06% | cell viability compared with paclitaxel (FIG. 1) ([4]; 0.01 and 0.1 μM, in nearly every case): decreased viability | in vitro activity against HCC cells compared with paclitaxel ([4]; concentrations of up to 1 μM): significantly higher | percentage of cells with intact cell membrane as compared to control ([5]; 24 hrs, 0.01 μM): 93.80 ± 10.7% | percentage of cells with intact cell membrane as compared to control ([5]; 24 hrs, 0.1 μM): 57.41 ± 6.8% | percentage of cells with intact cell membrane as compared to control ([5]; 24 hrs, 1 μM): 57.39 ± 4.3% | percentage of cells with intact cell membrane as compared to control ([5]; 72 hrs, 0.01 μM): 36.81 ± 14.7% | percentage of cells with intact cell membrane as compared to control ([5]; 72 hrs, 0.1 μM): 36.25 ± 13.5% | percentage of cells with intact cell membrane as compared to control ([5]; 72 hrs, 1 μM): 20.25 ± 14.4% | percentage of cells with intact cell membrane as compared to control ([6]; 24 hrs, 0.01 μM): 98.66 ± 9.0% | percentage of cells with intact cell membrane as compared to control ([6]; 24 hrs, 0.1 μM): 38.71 ± 11.2% | percentage of cells with intact cell membrane as compared to control ([6]; 24 hrs, 1 μM): 40.79 ± 5.0% | percentage of cells with intact cell membrane as compared to control ([6]; 72 hrs, 0.01 μM): 55.44 ± 5.6% | percentage of cells with intact cell membrane as compared to control ([6]; 72 hrs, 0.01 μM, listed as docetaxel): 55.44% | percentage of cells with intact cell membrane as compared to control ([6]; 72 hrs, 0.1 μM): 21.24 ± 0.4% | percentage of cells with intact cell membrane as compared to control ([6]; 72 hrs, 1 μM): 22.03 ± 3.1% | percentage of cells with intact cell membrane as compared to control ([7]; Hep G2, 24 hrs, 0.01 μM): 94.86 ± 1.3% | percentage of cells with intact cell membrane as compared to control ([7]; Hep G2, 24 hrs, 0.1 μM): 85.49 ± 1.2% | percentage of cells with intact cell membrane as compared to control ([7]; Hep G2, 24 hrs, 1 μM): 81.24 ± 3.2% | percentage of cells with intact cell membrane as compared to control ([7]; Hep G2, 72 hrs, 0.01 μM): 61.06 ± 9.6% | percentage of cells with intact cell membrane as compared to control ([7]; Hep G2, 72 hrs, 0.1 μM): 40.03 ± 9.0% | percentage of cells with intact cell membrane as compared to control ([7]; Hep G2, 72 hrs, 1 μM): 27.42 ± 8.8% | viability ([8]; 24 hours): 65.03% | viability ([8]; 72 hours): 48.99% | viability at 10 μM compared with 1 μM ([8]; Hep G2, 10 μM, maximal reduction observed at 1 μM): no further decrease in viability | DNA fragmentation (agarose gel, FIG. 3) [9]: induced DNA fragmentation
